Test results reported in patent US4789675A, “1,4-benzoxazine derivatives and pharmaceutical use” (priority 1986, dated 1988).

Assays:
intracellular Ca^++ = details: (2) Ca++ liberated from intracellular store; (3) influx through receptor-operated channel; cited from earlier work
[1] = in vivo; cited from earlier work
[2] = cited from earlier work
[3] = system: caffeine-induced contraction of rabbit aorta strip depending on intracellular Ca^++; assay: Intracellular Ca++ antagonism: inhibition of caffeine-induced contraction of aorta strip in Ca-free/EGTA solution; details: Oryctolagus cuniculus, caffeine 20 mM, Ca++ 0 mM, EGTA 5 mM, read-out: Inhibitory percent (caffeine contraction); for inhibition at 10 µM: compound 10^-5 M
Protocol: A spiral strip of aorta of a rabbit (2 to 3 mm width, aobut 3 cm length) was allowed to equilibrate by hanging under 2 g force in a Krebs-Henseleitsolution. The solution was saturated with a mixture gas of 97% O2 -3% CO2, which was warmed to 37° C. The strip was moved into another Krebs-Henseleit solution containing Ca^++ OmM and EGTA 5 mM. Five minutes later, caffeine (20 mM) was added to the solution. The resulting contraction of the strip was made as the index of the contraction depending on intracellular Ca^++.

[4] = system: ischemia-reperfusion-induced ventricular arrhythmia in rats; assay: Effect on the ischemia-reperfusion-induced ventricular arrhythmia in rats; format: in vivo, rat; details: 3, 10, and 20 mg/kg given orally
Protocol: Male Sprague-Dawley rats, 9 to 10 week old, were orally given the compounds or tap water at a volume of 5 ml/kg. After one hour, the animals were anesthetized with sodium pentobarbital (50 mg/kg, by intraperitoneal injection), and they were subjected to thoractomy under artificial respiration, and the left anterior descending coronary artery was occluded for five minutes. The incidences of ventricular tachycardia, ventricular fibrilation and cardiac arrest for ten minutes after reperfusion of the blood were calculated.

[5] = system: acute renal failure in rats; assay: Effect on acute renal failure in rats (plasma urea nitrogen, BUN); format: in vivo, rat; details: 1, 3 and 10 mg/kg given orally
Protocol: Male sprague-Dawley rats, 6 week old, were orally given the compunds or tap water at a volume of 5 ml/kg. After one hour, the animals were anesthetized with sodium pentobarbital. The animals were subjected to laparotomy, and the left renal artery was clamped completely for one hour. The clamp was undone, and the incision was closed. The animals were again given orally the compounds or tap water 20 hours later. Further four hours later, the animals were again anesthetized, and the blood was obtained from the abdominal aorta. The plasma was separated for measurement of urea nitrogen (BUN).

[6] = Acute toxicity (oral, 7 days observation); details: rat, in vivo, male rats, five animals/group, seven days
Source text: Male Wister rats aged five weeks (five animals/group) were orally given the test compounds (Example No. 1, 14, 15 and 18) suspended in a 5% solution of gum arabic. Each animal so treated was observed over a period of seven days.

Structure (SMILES)	action on intracellular Ca++ (intracellular Ca^++)	side effects [1]	inhibition at 10 µM [3]	further results
COC(=O)C1=C(C)NC(C)=C(C(=O)OC)C1c1ccccc1[N+](=O)[O-] [nifedipine]	hardly acts on (2) and (3)			
CN1CCN(CCCN2c3ccccc3Sc3ccc(C(F)(F)F)cc32)CC1 [trifluoperazine]	showing antagonism against intracellular Ca^++	side effects e.g. on the central nervous system		
NCCCCCCNS(=O)(=O)c1cccc2c(Cl)cccc12 [Example W-7]	weak in action			
CCN(CC)CCCCCCCCOC(=O)c1cc(OC)c(OC)c(OC)c1 [TMB-8]	weak in action		48%	antihypertensive action in vivo [2]: do not display antihypertensive action in vivo
O=C1Nc2cc3c(cc2OC1CCCN1CCN(c2ccc(F)cc2)CC1)CCCC3 (stereo not shown) [Example 1, 2-{3-[4-(4-fluorophenyl)-1-piperazinyl]propyl}-6,7,8,9-tetrahydro-2H-naphtho[2,3-b][1,4]oxazin-3(4H)-one]			87%	incidences of cardiac functional abnormalities [4]: inhibited the incidences of cardiac functional abnormalities in a dose-dependent manner; inhibition at 1 µM ([3]; compound 10^-6 M): 60%; increase in BUN [5]: inhibited the increase in BUN; LD50 at 168 h [6]: ≥ 300 mg/kg
COc1cc2nc(N3CCN(C(=O)c4ccco4)CC3)nc(N)c2cc1OC [prazosin]		orthostatic hypotension often observed		
